Test results reported in patent US9834558B2, “Substituted bridged urea analogs as sirtuin modulators” (GLAXOSMITHKLINE LLC, priority 2013, dated 2017).
Read-outs that look alike come from different tables or passages of the source.

Target: T1, SIRT1 (Homo sapiens, UniProt Q96EB6)
T1 sequence (Q96EB6 1-747): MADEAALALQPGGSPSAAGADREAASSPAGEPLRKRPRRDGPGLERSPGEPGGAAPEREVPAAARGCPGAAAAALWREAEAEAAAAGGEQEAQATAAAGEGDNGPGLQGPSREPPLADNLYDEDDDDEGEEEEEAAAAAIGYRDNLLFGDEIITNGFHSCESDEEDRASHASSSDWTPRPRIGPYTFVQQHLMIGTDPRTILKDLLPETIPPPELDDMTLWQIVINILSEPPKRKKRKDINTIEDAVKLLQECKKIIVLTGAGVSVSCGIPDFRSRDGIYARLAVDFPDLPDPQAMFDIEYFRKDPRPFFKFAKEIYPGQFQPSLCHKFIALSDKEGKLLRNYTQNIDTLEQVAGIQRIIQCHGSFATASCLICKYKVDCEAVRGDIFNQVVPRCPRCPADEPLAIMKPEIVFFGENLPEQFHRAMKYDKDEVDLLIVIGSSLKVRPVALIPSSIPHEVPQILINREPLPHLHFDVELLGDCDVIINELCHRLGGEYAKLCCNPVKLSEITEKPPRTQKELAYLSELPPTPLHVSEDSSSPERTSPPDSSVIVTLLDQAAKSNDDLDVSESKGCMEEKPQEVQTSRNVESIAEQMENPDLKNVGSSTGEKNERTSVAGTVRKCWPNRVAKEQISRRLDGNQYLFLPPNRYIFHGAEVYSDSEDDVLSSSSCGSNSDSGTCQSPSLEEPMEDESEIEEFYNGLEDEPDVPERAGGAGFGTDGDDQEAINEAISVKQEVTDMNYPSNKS
Assay: Trp mass spectrometry assay of SIRT1 activation
Assay type: biochemical
Details: for TRP Activity (EC1.5): EC1.5 = concentration that results in 150% activation of SIRT1
Excerpt: Mass spectrometry based assays were used to identify modulators of SIRT1 activity. […] The peptide was labeled with the fluorophore STMR (excitation 540 nm/emission 580 nm) at the C-terminus. The sequence of the peptide substrate was based on p53 with several modifications. In addition, the methionine residue naturally present in the sequence was replaced with the norleucine because the methionine may be susceptible to oxidation during synthesis and purification. The Trp based assay utilized a peptide having an amino acid residues as follows: Ac-R-H-K-K(Ac)-W-NH2 (SEQ ID NO: 2).
The Trp mass spectrometry assay was conducted as follows. 0.5 μM peptide substrate and 120 μM βNAD^+ were incubated with 10 nM SIRT1 for 25 minutes at 25° C. in a reaction buffer (50 mM HEPES pH 7.5, […], 1 mM DTT, 0.05% BSA). The SIRT1 protein was obtained by cloning the SirT1 gene into a T7-promoter containing vector, which was then expressed in BL21(DE3) bacterial cells and purified as described in further detail below. Test compound was added at varying concentrations to this reaction mixture and the resulting reactions were monitored. After the 25 minute incubation with SIRT1, 10 μL of 10% formic acid was added to stop the reaction. The resulting reactions were sealed and frozen for later mass spec analysis. The relative SIRT1 activity was then determined by measuring the amount of O-acetyl-ADP-ribose (OAADPR) formed (or, alternatively, the amount of deacetylated Trp peptide generated) by the NAD-dependent sirtuin deacetylation reaction in the presence of varying concentrations of the test compound versus control reactions lacking the test compound. The degree to which the test agent activated deacetylation by SIRT1 was expressed as EC1.5 (i.e., the concentration of compound required to increase SIRT1 activity by 50% over the control lacking test compound), and Percent Maximum Activation (i.e., the maximum activity relative to control (100%) obtained for the test compound).
This time point was the same as that used for test compounds and, within the linear range, the endpoint represents a change in velocity.
For the above assay, SIRT1 protein was expressed and purified as follows. The SirT1 gene was cloned into a T7-promoter containing vector and transformed into BL21(DE3). The protein was expressed by induction with 1 mM IPTG as an N-terminal His-tag fusion protein at 18° C. overnight and harvested at 30,000×g. Cells were lysed with lysozyme in lysis buffer (50 mM Tris-HCl, 2 mM Tris[2-carboxyethyl]phosphine (TCEP), 10 μM ZnCl2, 200 mM NaCl) and further treated with sonication for 10 min for complete lysis. The protein was purified over a Ni-NTA column (Amersham) and fractions containing pure protein were pooled, concentrated and run over a sizing column (Sephadex S200 26/60 global). The peak containing soluble protein was collected and run on an Ion-exchange column (MonoQ). Gradient elution (200 mM-500 mM NaCl) yielded pure protein. This protein was concentrated and dialyzed against dialysis buffer (20 mM Tris-HCl, 2 mM TCEP) overnight. The protein was aliquoted and frozen at −80° C. until further use.
“NT” means not tested; “ND” means not determinable.

[1] = Trp mass spectrometry assay, EC1.5 = concentration of test compound that results in 150% activation of SIRT1
[2] = concentration giving 150% activation of SIRT1, Trp peptide substrate
[3] = Trp peptide assay, maximum activity relative to control (100%), read-out: TRP MAX RESP (percent maximum fold activation)
[4] = Trp mass spectrometry assay, concentration of test compound giving 150% activation of SIRT1

O=C(Nc1cccnc1)N1c2nc(-c3cncc(C(F)(F)F)c3)ccc2N2CC[C@H]1C2 [Example 556]
Tryp AVG EC1.5 (μM) [1]: A (A (EC1.5<1 μM))

CC(C)(C)OC(=O)NCCCc1ccc(NC(=O)N2c3nc(-c4cccc(C(F)(F)F)c4)ccc3N3CC[C@H]2C3)cc1-c1cnco1 [Example 750]
Tryp AVG EC1.5 (μM) [2]: A (A (EC1.5<1 μM))

O=C(Nc1cc(-c2cnco2)ccn1)N1c2nc(-c3cccc(C(F)(F)F)c3)ccc2N2C[C@@H](O)[C@H]1C2 [Example 662]
Tryp AVG EC1.5 (μM) [2]: B (B (EC1.5 1-25 μM))

CN(C)c1ccnc(NC(=O)N2c3nc(-c4cccc(C(F)(F)F)c4)ccc3N3CC[C@H]2C3)n1 [Example 747]
Tryp AVG EC1.5 (μM) [2]: A (A (EC1.5<1 μM))

NCC#Cc1ccc(NC(=O)N2c3nc(-c4cccc(C(F)(F)F)c4)ccc3N3CC[C@H]2C3)cc1-c1cnco1 [Example 766]
Tryp AVG EC1.5 (μM) [2]: A (A (EC1.5<1 μM))

Cc1cc(C)nc(NC(=O)N2c3nc(-c4cccc(Cl)c4)ccc3N3CC[C@H]2C3)c1 [Example 105]
Tryp AVG EC1.5 (μM) (Trp peptide substrate, concentration giving 150% activation of SIRT1): B (B (EC1.5 1-25 μM))

Cc1cc(-c2ccc3c(n2)N(C(=O)Nc2cnccn2)[C@H]2CCCN3C2)ccn1 [(9S)-5-(2-methylpyridin-4-yl)-N-(pyrazin-2-yl)-1,6,8-triazatricyclo[7.3.1.0 {2,7}]trideca-2(7),3,5-triene-8-carboxamide]
TRP Activity (EC1.5) (Trp peptide assay): A (A (EC1.5<1 μM)) | Emax [3]: > 150%

O=C(Nc1ccc(F)cn1)N1c2nc(-c3ccnc(N4CC[C@@H](F)C4)c3)ccc2N2CC[C@H]1C2 [Example 474]
Tryp AVG EC1.5 (μM) [1]: A (A (EC1.5<1 μM))

CC(C)(C)c1nnc(NC(=O)N2c3nc(-c4cccc(C(F)(F)F)c4)ccc3N3CC[C@H]2C3)s1 [Example 649]
Tryp AVG EC1.5 (μM) [2]: B (B (EC1.5 1-25 μM))

Cc1ccc(-c2ccc3c(n2)N(C(=O)Nc2cncc(OC[C@@H](O)CO)n2)[C@H]2CCN3C2)cn1 [(9S)-N-{6-[(2S)-2,3-dihydroxypropoxy]pyrazin-2-yl}-5-(6-methylpyridin-3-yl)-1,6,8-triazatricyclo[7.2.1.0 {2,7}]dodeca-2(7),3,5-triene-8-carboxamide]
TRP Activity (EC1.5) (Trp peptide assay): B (B (EC1.5 1-25 μM)) | Emax [3]: > 150%

Cc1cc(-c2ccc3c(n2)N(C(=O)Nc2ccc4c(cnn4C)c2)[C@H]2CCN3C2)ccn1 [Example 502]
Tryp AVG EC1.5 (μM) [1]: A (A (EC1.5<1 μM))

Cc1cc(-c2ccc3c(n2)N(C(=O)Nc2ncnc4[nH]nnc24)[C@H]2CCN3C2)ccn1 [(9S)-5-(2-methylpyridin-4-yl)-N-{3H-[1,2,3]triazolo[4,5-d]pyrimidin-7-yl}-1,6,8-triazatricyclo[7.2.1.0^{2,7}]dodeca-2,4,6-triene-8-carboxamide]
TRP Activity (EC1.5) (Trp peptide assay): C (C (EC1.5>25 μM)) | Emax [3]: < 150%

COc1cc(NC(=O)N2c3nc(-c4cccc(C(F)(F)F)c4)ccc3N3C[C@@H](O)[C@H]2C3)nc(OC)n1 [Example 664]
Tryp AVG EC1.5 (μM) [2]: B (B (EC1.5 1-25 μM))

Cc1cc(-c2ccc3c(n2)N(C(=O)Nc2cnn(C)c2)[C@H]2CCCN3C2)ccn1 [(9S)-N-(1-methyl-1H-pyrazol-4-yl)-5-(2-methylpyridin-4-yl)-1,6,8-triazatricyclo[7.3.1.0 {2,7}]trideca-2(7),3,5-triene-8-carboxamide]
TRP Activity (EC1.5) (Trp peptide assay): B (B (EC1.5 1-25 μM)) | Emax [3]: > 150%

Cc1ccc(-c2ccc3c(n2)N(C(=O)NC2CC(F)(F)C2)[C@H]2CCN3C2)cn1 [(9S)-N-(3,3-difluorocyclobutyl)-5-(6-methylpyridin-3-yl)-1,6,8-triazatricyclo[7.2.1.0 {2,7}]dodeca-2(7),3,5-triene-8-carboxamide]
TRP Activity (EC1.5) (Trp peptide assay): B (B (EC1.5 1-25 μM)) | Emax [3]: > 150%

O=C(Nc1cccnn1)N1c2nc(-c3cccnc3)ccc2N2CCC[C@H]1C2 [Example 457]
Tryp AVG EC1.5 (μM) [1]: B (B (EC1.5 1-25 μM)) | Emax (Trp mass spectrometry assay, percent maximum fold activation of SIRT1, read-out: Tryp % Fold Act): > 150%

O=C(NC1CCOC1)c1ccc2c(n1)N(C(=O)Nc1ccccn1)[C@H]1CCN2C1 (stereo partly drawn) [(9S)-5-N-(oxolan-3-yl)-8-N-(pyridin-2-yl)-1,6,8-triazatricyclo[7.2.1.0 {2,7}]dodeca-2(7),3,5-triene-5,8-dicarboxamide]
TRP Activity (EC1.5) (Trp peptide assay): B (B (EC1.5 1-25 μM)) | Emax [3]: > 150%

CCCn1cc(-c2cccc(NC(=O)N3c4nc(-c5cccc(C(F)(F)F)c5)ccc4N4CC[C@H]3C4)n2)cn1 [Example 656]
Tryp AVG EC1.5 (μM) [2]: A (A (EC1.5<1 μM))

O=C(Nc1ccc2[nH]ncc2c1)N1c2nc(-c3cccc(C(F)(F)F)c3)ccc2N2CC[C@H]1C2 [Example 666]
Tryp AVG EC1.5 (μM) [2]: A (A (EC1.5<1 μM))

COc1cc(NC(=O)N2c3nc(-c4ccnc(F)c4)ccc3N3CC[C@H]2C3)ncn1 [Example 358]
Tryp AVG EC1.5 (μM) [4]: C (C (EC1.5>25 μM))

O=C(Nc1ccc(F)cn1)N1c2nc(-c3ccnc(N4CCC(C(F)(F)F)C4)c3)ccc2N2CC[C@H]1C2 (stereo partly shown) [Example 391]
Tryp AVG EC1.5 (μM) [4]: A (A (EC1.5<1 μM))

COc1cncc(-c2ccc3c(n2)N(C(=O)Nc2ccccn2)[C@H]2CCN3C2)c1 [Example 346]
Tryp AVG EC1.5 (μM) [4]: B (B (EC1.5 1-25 μM))

O=C(Nc1cnccn1)N1c2nc(-c3ccnc(N4CC[C@H](F)C4)c3)ccc2N2CC[C@H]1C2 [Example 436]
Tryp AVG EC1.5 (μM) [1]: A (A (EC1.5<1 μM))

Cc1cc(-c2ccc3c(n2)N(C(=O)Nc2cncc(F)n2)[C@H]2CCN3C2)ccn1 [(9S)-N-(6-fluoropyrazin-2-yl)-5-(2-methylpyridin-4-yl)-1,6,8-triazatricyclo[7.2.1.0 {2,7}]dodeca-2(7),3,5-triene-8-carboxamide]
TRP Activity (EC1.5) (Trp peptide assay): A (A (EC1.5<1 μM)) | Emax [3]: > 150%

Cc1cc(-c2ccc3c(n2)N(C(=O)Nc2cncc(C)n2)[C@H]2CCN3C2)ccn1 [Example 503]
Tryp AVG EC1.5 (μM) [1]: A (A (EC1.5<1 μM))

Cc1cc(-c2ccc3c(n2)N(C(=O)Nc2ccc4c(c2)OCCO4)[C@H]2CCN3C2)ccn1 [(9S)-N-(2,3-dihydro-1,4-benzodioxin-6-yl)-5-(2-methylpyridin-4-yl)-1,6,8-triazatricyclo[7.2.1.0 {2,7}]dodeca-2(7),3,5-triene-8-carboxamide]
TRP Activity (EC1.5) (Trp peptide assay): B (B (EC1.5 1-25 μM)) | Emax [3]: > 150%

C#CNc1nccc(NC(=O)N2c3nc(-c4cccc(C5(C(F)(F)F)N=N5)c4)ccc3N3CC[C@H]2C3)n1 [Example 809]
Tryp AVG EC1.5 (μM) [2]: B (B (EC1.5 1-25 μM)) | Emax (percent maximum fold activation of SIRT1, Trp peptide substrate, read-out: Tryp % Fold Act): > 150%

O=C(Nc1cncc(F)c1)N1c2nc(-c3cncc(C(F)(F)F)c3)ccc2N2CCC[C@H]1C2 [Example 411]
Tryp AVG EC1.5 (μM) [4]: A (A (EC1.5<1 μM))

CC1CCN(c2ccc3c(n2)N(C(=O)Nc2cnccn2)[C@H]2CCN3C2)CC1 [(9S)-5-(4-methylpiperidin-1-yl)-N-(pyrazin-2-yl)-1,6,8-triazatricyclo[7.2.1.0 {2,7}]dodeca-2,4,6-triene-8-carboxamide]
TRP Activity (EC1.5) (Trp peptide assay): B (B (EC1.5 1-25 μM)) | Emax [3]: > 150%
